Assay results reported in patent US20240041042A1, “1-(PYRIDYL)-5-AZINYLPYRAZOLE DERIVATIVES, AND THEIR USE FOR CONTROL OF UNDESIRED PLANT GROWTH” (Bayer Aktiengesellschaft, priority 2020, published 2024).
Read-outs that look alike come from different tables or passages of the source.

What was measured:
Format in all cases: in vivo
[1] = system: Amaranthus retroflexus (AMARE); assay: Post-emergence herbicidal action against AMARE
Outline: (§1)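 Post-emergence greenhouse spray, one-leaf stage, 600 l/ha water plus 0.5% additive; WP or EC formulations; application rates 320 g/ha or lower. Visual % damage vs untreated controls at ~3 weeks.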

[2] = system: Abutilon theophrasti (ABUTH); assay: Post-emergence herbicidal action against ABUTH; conditions: visual rating about 3 weeks after treatment vs untreated controls (100% = plants have died, 0% = like control plants)
Outline: as §1

[3] = system: Matricaria inodora (MATIN); assay: Post-emergence herbicidal action against MATIN
Outline: as §1

[4] = system: Digitaria sanguinalis (DIGSA); assay: Post-emergence herbicidal action against DIGSA; conditions: visual rating about 3 weeks after treatment
Outline: as §1

[5] = system: Polygonum convolvulus (POLCO); assay: Post-emergence herbicidal action against POLCO
Outline: as §1

[6] = system: Lolium rigidum (LOLRI); assay: Post-emergence herbicidal action against LOLRI
Outline: as §1

[7] = system: Alopecurus myosuroides (ALOMY); assay: Post-emergence herbicidal action against ALOMY; conditions: visual rating about 3 weeks after treatment vs untreated controls (100% = plants have died, 0% = like control plants)
Outline: as §1

[8] = system: Avena fatua (AVEFA); assay: Post-emergence herbicidal action against AVEFA; conditions: 320 g/ha, visual rating about 3 weeks after treatment
Outline: as §1

[9] = system: Viola tricolor (VIOTR); assay: Post-emergence herbicidal action against VIOTR
Outline: as §1

[10] = system: Triticum aestivum (TRZAS); conditions: crop plant compatibility, 20 g/ha, effect vs untreated controls
Outline: (§2)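 One-leaf-stage crops (2–3 wk post-sowing, sandy loam, greenhouse) sprayed on green parts; 0.5% additive, 600 l/ha water. Rated by eye ~3 wk later, % vs untreated; suffixes a/b/c mark different dosages.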

[11] = system: Oryza sativa (ORYSA); conditions: crop plant compatibility
Outline: as §2

[12] = system: Setaria viridis (SETVI); assay: Post-emergence herbicidal action against SETVI
Outline: as §1

[13] = system: Pharbitis purpurea (PHBPU); assay: Post-emergence herbicidal action against PHBPU
Outline: as §1

[14] = system: Echinochloa crus-galli (ECHCG); assay: Post-emergence herbicidal action against ECHCG
Outline: as §1

[15] = system: Verconica persica (VERPE); assay: Post-emergence herbicidal action against VERPE
Outline: as §1

[16] = system: Zea mays (ZEAMX); conditions: for Post-emergence action against ZEAMX in % (crop plant compatibility): 20 g/ha, effect in comparison to untreated controls; for Post-emergence action against ZEAMX in %: crop plant compatibility, effect vs untreated controls
Outline: as §2

[17] = 320 g/ha, visual rating about 3 weeks after treatment
[18] = 20 g/ha, effect vs untreated controls
[19] = 80 g/ha, visual rating about 3 weeks after treatment vs untreated controls (100% = plants have died, 0% = like control plants)

| SMILES | Post-emergence action against AMARE in % [1, 17] | Post-emergence action against ABUTH in % ([2]; 80 g/ha) | Post-emergence action against ABUTH in % ([2]; 320 g/ha) | Post-emergence action against MATIN in % ([3]; dosage 80 g/ha) | Post-emergence action against MATIN in % ([3]; dosage 320 g/ha) | Post-emergence action against DIGSA in % ([4]; 320 g/ha) | Post-emergence action against POLCO in % ([5]; dosage 320 g/ha) | Post-emergence action against LOLRI in % ([6]; dosage 320 g/ha) | Post-emergence action against ALOMY in % ([7]; 320 g/ha) | Post-emergence action against AVEFA in % [8] | Post-emergence action against VIOTR in % ([9]; 80 g/ha) | Post-emergence action against VIOTR in % ([9]; 320 g/ha) | Post-emergence action against TRZAS in % [10] | Post-emergence action against ORYSA in % [11, 18] | Post-emergence action against SETVI in % ([12]; dosage 320 g/ha) | Post-emergence action against PHBPU in % ([13]; dosage 80 g/ha) | Post-emergence action against PHBPU in % ([13]; dosage 320 g/ha) | Post-emergence action against ECHCG in % ([14]; dosage 80 g/ha) | Post-emergence action against ECHCG in % ([14]; dosage 320 g/ha) | Post-emergence action against VERPE in % ([15]; 320 g/ha, VERPE) | other results |
| --- | --- | --- | --- | --- | --- | --- | --- | --- | --- | --- | --- | --- | --- | --- | --- | --- | --- | --- | --- | --- | --- |
| C[C@@H](Oc1nn(-c2ncccc2F)c(-c2cncc(F)c2)c1Cl)C(=O)O [Example I-165] | 80% | 90% | 90% | 80% | 90% | 90% | 90% | 100% | 100% | 90% | 90% | 90% | 20% | 0% | 90% | 80% | 90% | 90% | 90% | 90% | Post-emergence action against DIGSA in % ([4]; 80 g/ha): 90%; Post-emergence action against POLCO in % ([5]; dosage 80 g/ha): 80%; Post-emergence action against SETVI in % ([12]; dosage 80 g/ha): 90%; Post-emergence action against VERPE in % ([15]; dosage 80 g/ha): 90% |
| CCOC(=O)COc1nn(-c2ncccc2C)c(-c2cncc(F)c2)c1Cl [Example I-181] | 90% | 80% | 80% | 80% | 80% | 90% | 80% | 80% | 90% | 90% | 90% | 90% | 20% | 0% | 90% | 90% | 100% | 90% | 100% | 90% | Post-emergence action against AMARE in % [1, 19]: 80%; Post-emergence action against DIGSA in % ([4]; 80 g/ha): 90%; Post-emergence action against POLCO in % ([5]; dosage 80 g/ha): 80%; Post-emergence action against ALOMY in % ([7]; 80 g/ha): 80%; Post-emergence action against ZEAMX in % (crop plant compatibility) [16]: 20%; Post-emergence action against SETVI in % ([12]; dosage 80 g/ha): 80%; Post-emergence action against VERPE in % ([15]; dosage 80 g/ha): 90% |
| CCOC(=O)[C@@H](C)Oc1nn(-c2ncccc2F)c(-c2cncc(F)c2)c1Cl [Example I-145] | 80% | 90% | 90% | 80% | 90% | 90% | 90% | 90% | 90% | 90% | 90% | 90% | 20% | 0% | 90% | 90% | 90% | 90% | 90% | 90% | Post-emergence action against AMARE in % [1, 19]: 80%; Post-emergence action against POLCO in % ([5]; dosage 80 g/ha): 90%; Post-emergence action against LOLRI in % ([6]; dosage 80 g/ha): 90%; Post-emergence action against ALOMY in % ([7]; 80 g/ha): 80%; Post-emergence action against SETVI in % ([12]; dosage 80 g/ha): 90%; Post-emergence action against VERPE in % ([15]; dosage 80 g/ha): 90% |
| CCOC(=O)COc1nn(-c2ccncc2F)c(-c2ccc(F)nc2)c1Br [III-29] |  |  | 80% | 80% | 90% | 90% | 80% | 80% | 90% |  |  |  | 20% | 10% | 90% | 80% | 90% | 80% | 80% | 80% | Post-emergence action against ZEAMX in % (crop plant compatibility) [16]: 10%; Post-emergence action against ORYSA in % ([11]; 80 g/ha, effect in comparison to untreated controls): 20% |
| COC(=O)COc1nn(-c2ncccc2F)c(-c2ccnc(F)c2)c1Br [Example I-130] | 90% | 80% | 90% |  | 80% | 90% | 80% | 90% | 90% | 90% | 90% | 90% | 20% | 0% |  |  | 80% |  | 90% | 80% | Post-emergence action against AMARE in % [1, 19]: 80%; Post-emergence action against DIGSA in % ([4]; 80 g/ha): 80%; Post-emergence action against ZEAMX in % (crop plant compatibility) [16]: 0%; Post-emergence action against ZEAMX in % ([16]; 80 g/ha): 0%; Post-emergence action against ZEAMX in % ([16]; 320 g/ha): 20%; Post-emergence action against VERPE in % ([15]; dosage 80 g/ha): 80% |
| Cc1cccnc1-n1nc(OCC(=O)O)c(Cl)c1-c1cncc(F)c1 [Example I-182] | 90% | 80% | 80% | 80% | 90% | 100% | 90% |  | 80% | 90% | 80% | 90% | 10% | 10% | 80% | 90% | 90% | 90% | 90% | 90% | Post-emergence action against AMARE in % [1, 19]: 80%; Post-emergence action against DIGSA in % ([4]; 80 g/ha): 90%; Post-emergence action against POLCO in % ([5]; dosage 80 g/ha): 80%; Post-emergence action against ZEAMX in % (crop plant compatibility) [16]: 10%; Post-emergence action against ZEAMX in % ([16]; 80 g/ha): 20%; Post-emergence action against SETVI in % ([12]; dosage 80 g/ha): 80%; Post-emergence action against VERPE in % ([15]; dosage 80 g/ha): 80% |
